# Assay results from US20130288956A1, “COMBINED PHARMACEUTICAL COMPOSITION AS ANTIFUNGAL AGENT” (priority 2010, published 2013).
# Numbered stars: 1 amine (or outer) side, 2 acyl side, 3 side chain; on linkers, the order of the positions; unused ones are H or OH. Bridge positions count the residues as written; N and C are the ends. Square brackets hold non-standard residues; d marks the D form. Peptide text beside a SMILES is read from it. * marks the point of attachment. hTyr(3S-OH,4S-OH,3'-OSO3H) = N[C@H](C(=O)O)[C@H](O)[C@@H](O)c1ccc(O)c(OS(=O)(=O)O)c1; Orn(4R-OH,5R-OH) = O=C([C@H](C[C@@H](O)[C@@H](O)N[*:3])N[*:1])[*:2]; Pro(3S-OH,4S-Me) = C[C@H]1CN[C@H](C(=O)O)[C@H]1O; X1 = CCCCCOc1ccc(-c2cc(-c3ccc(C(=O)*)cc3)no2)cc1; Gln(3R-OH) = NC(=O)C[C@@H](O)[C@H](N)C(=O)O; Hyp = O=C(O)[C@@H]1C[C@@H](O)CN1
# Key:
# [1] = tested on: A. fumigatus strain IFM52108; test: A. fumigatus respiratory tract infection model; assay type: in vivo, mice; details: for Combination effects in mouse Aspergillus fumigatus infection model: combination with the test compound of the invention
# Procedure: (§1) Female DBA/2N mice (age 8 weeks, Charles River Laboratories Japan, Inc.) were subcutaneously administered 200 mg/kg of 5-fluorouracil 5 or 6 days prior to infection in order to put the mice into a compromised state.
# (§2) A. fumigatus strain IFM52108 and A. flavus strain IFM50915 were used.
# A liquid containing spores of A. fumigatus strain IFM52108 stored at −80° C. was applied to Potato Dextrose agar medium (PDA, Eiken Chemical Co., Ltd.) followed by static culturing for 5 to 7 days at 35° C. and suspending in sterile physiological saline containing 0.05% Tween 80.
# The number of spores was counted using a hemocytometer, and the liquid was diluted with sterile physiological saline containing 0.05% Tween 80 to a concentration of 1.2×10^6 cells/mL to 2.5×10^6 cells/mL to obtain an inoculation fungus liquid.
# (§3) 50 μl of inoculation fungus liquid were inoculated into the nasal cavities of 9-week-old mice at 0.3×10^5 cells/mouse to 1.25×10^5 cells/mouse under Ketalar anesthesia.
# (§4) 0.1 mL to 0.2 mL of each drug solution (dissolved in sterile physiological saline or 5% glucose solution, or dissolved in sterile physiological saline or 5% glucose solution containing 6.5% dimethylsulfoxide and 3.5% Tween 80) was administered to the individual and combination dose groups either into the peritoneal cavity or into the stomach using a gastric cannula corresponding to the administration route of the drug for 3 to 4 days at the rate of 1 to 2 times per day starting 0.5 hours to 1 hour after inoculation of fungus.
# (§5) There were 5 to 9 animals in each group.
# (§6) Infection protection results were assessed on survival rate 14 days after infection.
# C. glabrata = test: In vitro combination effects, checkerboard method by micro dilution (FIC index); assay type: cell-based, Candida glabrata; details: C. glabrata (10 strains); combination use with Test Compound 1
# Procedure: (§7) A clinically isolated strain retained by the Medical Mycology Research Center of Chiba University (Code No. IFM) and a clinically isolated strain retained by the Life Science Research Center of Gifu University (Code No. E) were used as Candida and Aspergillus strains.
# (§8) Fungus liquid obtained by static culturing at 35° C. for 48 hours in Sabouraud Dextrose liquid medium (SDB, Becton, Dickinson and Co.) was diluted with RPMI 1640 medium (Nissui Pharmaceutical Co., Ltd.) containing 0.165 M 3-(N-morpholino)propanesulfonic acid (MOPS) to prepare a fungus liquid having a fungus concentration of 1×10^3 cells/mL to 2×10^3 cells/mL.
# (§9) Test Compound 1 (0.0005 μg/mL to 1.56 μg/mL) in the horizontal rows (12 wells) of a 96-well flat-bottom plate, and an antifungal agent in the form of ravuconazole (0.0015 μg/mL to 6.25 μg/mL), fluconazole (0.008 μg/mL to 32 μg/mL), voriconazole (0.0002 μg/mL to 8 μg/mL), micafungin (0.0005 μg/mL to 0.25 μg/mL), caspofungin (0.0005 μg/mL to 1 μg/mL) or amphotericin B (0.008 μg/mL to 8 μg/mL) in the vertical rows (8 wells) of the flat-bottom plate were prepared by diluting so as to blend together using RPMI 1640 medium containing 0.165 M MOPS to obtain a control group, a single Test Compound 1 group, each one of antifungal agents groups and combination groups of Test Compound 1+each one of antifungal agents.
# (§10) The fungus liquids prepared in (1) were inoculated into the wells of 96-well flat-bottom plate containing 20 μL/well to 75 μL/well of the diluted test drug liquids prepared in (2) at 80 μL/well to 125 μL/well, followed by aerobically static culturing for 25 hours to 48 hours at 35° C.
# (§11) Combination effects of Test Compound 1 and the antifungal agents were measured with the checkerboard method by micro dilution.
# (§12) Interaction between both drugs was assessed by calculating the FIC index using the calculation formula indicated below.
# (§13) The FIC index was calculated for each combination of antifungal agent concentrations that inhibited fungal growth, and the minimum value of the resulting FIC index was used as a combination FIC index.
# (§14) A combination FIC index of 0.5 or less was evaluated as indicating synergistic action, that of 0.5 to 1 or less was evaluated as indicating additive action, and that of 1 to 4 or less was evaluated as indicating indifferent action.
# (§15) FIC Index=(MIC value of drug A during combination use/MIC value of drug A when used alone)+(MIC value of drug B during combination use/MIC value of drug B when used alone) (Calculation Formula)
# A. fumigatus = test: as above; assay type: cell-based, Aspergillus fumigatus; details: A. fumigatus (18 strains)
# Procedure: as §7
# (§16) An Aspergillus strain stored frozen at −80° C., or spores obtained by static culturing at 35° C. for 1 week in Potato Dextrose agar medium (PDA, Eiken Chemical Co., Ltd.) followed by scraping from the container with a metal loop, was diluted with RPMI 1640 medium containing 0.165 M MOPS to prepare a fungus liquid having a fungus concentration of 0.75×10^4 cells/mL to 1.33×10^4 cells/mL.
# as §9, §10, §11, §12, §13, §14, §15
# C. tropicalis = test: as above; assay type: cell-based, Candida tropicalis; details: C. tropicalis (10 strains); combination use with Test Compound 1
# Procedure: as §7, §8, §9, §10, §11, §12, §13, §14, §15
# A. flavus = test: as above; assay type: cell-based, Aspergillus flavus; details: A. flavus (4 strains), Table 1
# Procedure: as §7, §16, §9, §10, §11, §12, §13, §14, §15
# C. albicans = test: as above; assay type: cell-based, Candida albicans; details: C. albicans (20 strains); combination use with Test Compound 1
# Procedure: as §7, §8, §9, §10, §11, §12, §13, §14, §15
# [2] = tested on: A. flavus strain IFM50915; test: A. flavus respiratory tract infection model; assay type: in vivo, mice
# Procedure: as §1, §2
# A liquid containing spores of A. flavus strain IFM50915 stored at −80° C. was thawed, and the number of spores was counted using a hemocytometer followed by diluting with sterile physiological saline containing 0.05% Tween 80 to a concentration of 0.6×10^6 cells/mL to 1.0×10^6 cells/mL to obtain an inoculation fungus liquid.
# as §3, §4, §5, §6
Structure (SMILES),Combination effects in mouse Aspergillus fumigatus infection model [1],Ratio indicating Additive effect of combination use with Test Compound 1 (C. glabrata) [%],Ratio indicating Antagonistic effect of combination use with Test Compound 1 (C. glabrata) [%],Ratio indicating Indifferent effect of combination use with Test Compound 1 (C. glabrata) [%],Ratio indicating Synergistic effect of combination use with Test Compound 1 (C. glabrata) [%],Ratio indicating Additive effect of combination use with Test Compound 1 (A. fumigatus) [%],Ratio indicating Antagonistic effect of combination use with Test Compound 1 (A. fumigatus) [%],Ratio indicating Indifferent effect of combination use with Test Compound 1 (A. fumigatus) [%],Ratio indicating Synergistic effect of combination use with Test Compound 1 (A. fumigatus) [%],Ratio indicating Additive effect of combination use with Test Compound 1 (C. tropicalis) [%],Ratio indicating Antagonistic effect of combination use with Test Compound 1 (C. tropicalis) [%],Ratio indicating Indifferent effect of combination use with Test Compound 1 (C. tropicalis) [%],Ratio indicating Synergistic effect of combination use with Test Compound 1 (C. tropicalis) [%],Ratio indicating Additive effect of combination use with Test Compound 1 (A. flavus) [%],Ratio indicating Antagonistic effect of combination use with Test Compound 1 (A. flavus) [%],Ratio indicating Indifferent effect of combination use with Test Compound 1 (A. flavus) [%],Ratio indicating Synergistic effect of combination use with Test Compound 1 (A. flavus) [%],Ratio indicating Additive effect of combination use with Test Compound 1 (C. albicans) [%],Ratio indicating Antagonistic effect of combination use with Test Compound 1 (C. albicans) [%],Ratio indicating Indifferent effect of combination use with Test Compound 1 (C. albicans) [%],other results
"CCCCCOc1ccc(-c2cc(-c3ccc(C(=O)N[C@H]4C[C@@H](O)[C@@H](O)NC(=O)[C@@H]5[C@@H](O)[C@@H](C)CN5C(=O)[C@H]([C@H](O)CC(N)=O)NC(=O)[C@H]([C@H](O)[C@@H](O)c5ccc(O)c(OS(=O)(=O)O)c5)NC(=O)[C@@H]5C[C@@H](O)CN5C(=O)[C@H]([C@@H](C)O)NC4=O)cc3)no2)cc1 [Micafungin, micafungin] (X1-[Orn(4R-OH,5R-OH)]T[Hyp][hTyr(3S-OH,4S-OH,3'-OSO3H)][Gln(3R-OH)][Pro(3S-OH,4S-Me)]; lactam 1-C)",synergistic combination effects,70,0,30,0,0,0,0,100,100,0,0,0,0,0,0,100,80,0,20,"14-day survival rate ([1]; MCFG 1 mg/kg): 0%; 14-day survival rate ([1]; MCFG 2 mg/kg): 40%; Ratio indicating Synergistic effect of combination use with Test Compound 1 (C. albicans): 0%; 14-day survival rate ([2]; MCFG 0.25 mg/kg, Table 5): 0%; 14-day survival rate ([2]; MCFG 0.5 mg/kg, Table 4): 50%; 14-day survival rate ([2]; MCFG 0.5 mg/kg, Table 5): 33.3%; Combined effects in mouse Aspergillus flavus infection model ([2]; combination with the test compound of the invention): synergistic combined effects"
"C[C@@H](c1ncncc1F)[C@](O)(Cn1cncn1)c1ccc(F)cc1F [Voriconazole, voriconazole]",synergistic combination effects,60,0,10,30,28,0,67,6,0,0,0,100,50,0,50,0,75,0,10,14-day survival rate ([1]; VRCZ 1 mg/kg): 0%; 14-day survival rate ([1]; VRCZ 2 mg/kg): 20%; Ratio indicating Synergistic effect of combination use with Test Compound 1 (C. albicans): 15%
